According to ChEMBL document CHEMBL1201862, “PubChem BioAssay data set” (2004):
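These data come from cells grown in 96-well plates and exposed to compound for 48 hours at five concentrations. GI50 marks 50% less growth.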 Calls of active or inactive are those of the source. No stated cut-off is given here; in the data, active = GI50 up to about 1.1 µM and inactive = higher.

What was measured:
Assay in all cases: DTP human tumour cell line panel, 48 h
[1] = system: UACC-257
[2] = system: NCI-H460
[3] = system: SNB-75
[4] = system: MOLT-4
[5] = system: A498
[6] = system: SK-OV-3
[7] = system: CAKI-1
[8] = system: SK-MEL-28
[9] = system: HCC 2998
[10] = system: SNB-19
[11] = system: SN12C
[12] = system: LOX IMVI
[13] = system: HT-29
[14] = system: K562
[15] = system: HCT-116
[16] = system: HCT-15
[17] = system: EKVX
[18] = system: UACC-62
[19] = system: HOP-92
[20] = system: SK-MEL-5
[21] = system: SK-MEL-2
[22] = system: DLD-1
[23] = system: SF-539
[24] = system: KM-20L2
[25] = system: 786-0
[26] = system: SF-268
[27] = system: RPMI-8226
[28] = system: A549
[29] = system: OVCAR-8
[30] = system: OVCAR-3
[31] = system: SF-295
[32] = system: OVCAR-4
[33] = system: OVCAR-5
[34] = system: CCRF-CEM
[35] = system: DMS-273
[36] = system: KM12
[37] = system: DMS-114
[38] = system: COLO 205
[39] = system: HL-60
[40] = system: M19-MEL
[41] = system: HOP-18
[42] = system: SNB-78
[43] = system: U-251
[44] = system: LXFL 529
[45] = system: NCI-H23
[46] = system: NCI-H522
[47] = system: SR
[48] = system: NCI-H226
[49] = system: SW-620
[50] = system: UO-31
[51] = system: TK-10
[52] = system: RXF 393
[53] = system: M14
[54] = system: ACHN
[55] = system: Malme-3M
[56] = system: IGROV-1
[57] = system: XF498
[58] = system: HOP-62

Q: `Nc1c(-c2ccccc2-c2c(N)[n+]([O-])c3ccccc3[n+]2[O-])[n+]([O-])c2ccccc2[n+]1[O-]` was tested. Which GI50 [1] did it give?
A: 7.45 µM (inactive)

Q: And the GI50 [2]?
A: 2.51 µM (inactive)

Q: And the GI50 [3]?
A: 22.2 µM (inactive)

Q: And the GI50 [4]?
A: 2.1 µM (inactive)

Q: What about the GI50 [5] of the same molecule?
A: 20.8 µM (inactive)

Q: And the GI50 [6]?
A: 22.9 µM (inactive)

Q: What about the GI50 [7] of the same molecule?
A: 33.5 µM (inactive)

Q: What about the GI50 [8] of the same molecule?
A: 23 µM (inactive)

Q: And the GI50 [9]?
A: 22 µM (inactive)

Q: What about the GI50 [10] of the same molecule?
A: 7.91 µM (inactive)

Q: What about the GI50 [11] of the same molecule?
A: 6.17 µM (inactive)

Q: And the GI50 [12]?
A: 8.83 µM (inactive)

Q: What about the GI50 [13] of the same molecule?
A: 6.9 µM (inactive)

Q: What about the GI50 [14] of the same molecule?
A: 5.74 µM (inactive)

Q: What about the GI50 [15] of the same molecule?
A: 6.71 µM (inactive)

Q: And the GI50 [16]?
A: 5.28 µM

Q: What about the GI50 [17] of the same molecule?
A: 5.37 µM (inactive)

Q: What about the GI50 [18] of the same molecule?
A: 3.7 µM (inactive)

Q: And the GI50 [19]?
A: > 100 µM (inactive)

Q: What about the GI50 [20] of the same molecule?
A: 10.7 µM (inactive)

Q: And the GI50 [21]?
A: 34.8 µM (inactive)

Q: What about the GI50 [22] of the same molecule?
A: 4.63 µM (inactive)

Q: What about the GI50 [23] of the same molecule?
A: 17.5 µM (inactive)

Q: And the GI50 [24]?
A: 4.33 µM (inactive)

Q: What about the GI50 [25] of the same molecule?
A: 12 µM (inactive)

Q: What about the GI50 [26] of the same molecule?
A: 3.16 µM (inactive)

Q: What about the GI50 [27] of the same molecule?
A: 4.73 µM (inactive)

Q: And the GI50 [28]?
A: 11.4 µM (inactive)

Q: What about the GI50 [29] of the same molecule?
A: 3.7 µM (inactive)

Q: And the GI50 [30]?
A: 7.45 µM (inactive)

Q: And the GI50 [31]?
A: 12.9 µM (inactive)

Q: What about the GI50 [32] of the same molecule?
A: 4.89 µM (inactive)

Q: And the GI50 [33]?
A: 64.6 µM (inactive)

Q: And the GI50 [34]?
A: 2.49 µM (inactive)

Q: What about the GI50 [35] of the same molecule?
A: 4.66 µM (inactive)

Q: And the GI50 [36]?
A: 8.32 µM (inactive)

Q: What about the GI50 [37] of the same molecule?
A: 3.36 µM (inactive)

Q: What about the GI50 [38] of the same molecule?
A: 4.69 µM (inactive)

Q: What about the GI50 [39] of the same molecule?
A: 3.69 µM (inactive)

Q: And the GI50 [40]?
A: 8.41 µM (inactive)

Q: What about the GI50 [41] of the same molecule?
A: 7.71 µM (inactive)

Q: What about the GI50 [42] of the same molecule?
A: 71.8 µM (inactive)

Q: And the GI50 [43]?
A: 5.46 µM (inactive)

Q: And the GI50 [44]?
A: 6.19 µM (inactive)

Q: And the GI50 [45]?
A: 15.6 µM (inactive)

Q: And the GI50 [46]?
A: 2.06 µM (inactive)

Q: And the GI50 [47]?
A: 4.3 µM (inactive)

Q: And the GI50 [48]?
A: 19.5 µM (inactive)

Q: What about the GI50 [49] of the same molecule?
A: 8.45 µM (inactive)

Q: What about the GI50 [50] of the same molecule?
A: 10 µM (inactive)

Q: And the GI50 [51]?
A: 33.7 µM (inactive)

Q: What about the GI50 [52] of the same molecule?
A: 30.3 µM (inactive)

Q: And the GI50 [53]?
A: 12.2 µM (inactive)

Q: What about the GI50 [54] of the same molecule?
A: 8.32 µM (inactive)

Q: And the GI50 [55]?
A: 35 µM (inactive)

Q: How did the GI50 [1] turn out when `CC1(C)CC(C2CC(C)(C)CC(C)(C)[C@H]2O)[C@@H](O)C(C)(C)C1` (stereo not given in full) was run?
A: > 100 µM (inactive)

Q: And the GI50 [2]?
A: > 100 µM (inactive)

Q: And the GI50 [4]?
A: > 100 µM (inactive)

Q: And the GI50 [6]?
A: > 100 µM (inactive)

Q: What about the GI50 [8] of the same molecule?
A: > 100 µM (inactive)

Q: And the GI50 [9]?
A: > 100 µM (inactive)

Q: And the GI50 [10]?
A: > 100 µM (inactive)

Q: And the GI50 [11]?
A: > 100 µM (inactive)

Q: What about the GI50 [12] of the same molecule?
A: > 100 µM (inactive)

Q: What about the GI50 [13] of the same molecule?
A: > 100 µM (inactive)

Q: What about the GI50 [14] of the same molecule?
A: > 100 µM (inactive)

Q: What about the GI50 [15] of the same molecule?
A: > 100 µM (inactive)

Q: What about the GI50 [16] of the same molecule?
A: > 100 µM

Q: What about the GI50 [17] of the same molecule?
A: > 100 µM (inactive)

Q: And the GI50 [18]?
A: > 100 µM (inactive)

Q: What about the GI50 [20] of the same molecule?
A: > 100 µM (inactive)

Q: And the GI50 [23]?
A: > 100 µM (inactive)

Q: And the GI50 [56]?
A: > 100 µM (inactive)

Q: What about the GI50 [24] of the same molecule?
A: > 100 µM (inactive)

Q: What about the GI50 [25] of the same molecule?
A: > 100 µM (inactive)

Q: And the GI50 [26]?
A: > 100 µM (inactive)

Q: What about the GI50 [27] of the same molecule?
A: > 100 µM (inactive)

Q: What about the GI50 [28] of the same molecule?
A: > 100 µM (inactive)

Q: What about the GI50 [29] of the same molecule?
A: > 100 µM (inactive)

Q: What about the GI50 [30] of the same molecule?
A: > 100 µM (inactive)

Q: What about the GI50 [31] of the same molecule?
A: > 100 µM (inactive)

Q: And the GI50 [34]?
A: > 100 µM (inactive)

Q: And the GI50 [35]?
A: > 100 µM (inactive)

Q: And the GI50 [36]?
A: > 100 µM (inactive)

Q: What about the GI50 [37] of the same molecule?
A: > 100 µM (inactive)

Q: What about the GI50 [38] of the same molecule?
A: > 100 µM (inactive)

Q: What about the GI50 [39] of the same molecule?
A: > 100 µM (inactive)

Q: What about the GI50 [40] of the same molecule?
A: > 100 µM (inactive)

Q: And the GI50 [43]?
A: > 100 µM (inactive)

Q: And the GI50 [44]?
A: > 100 µM (inactive)

Q: What about the GI50 [57] of the same molecule?
A: > 100 µM (inactive)

Q: And the GI50 [45]?
A: > 100 µM (inactive)

Q: What about the GI50 [46] of the same molecule?
A: > 100 µM (inactive)

Q: What about the GI50 [47] of the same molecule?
A: > 100 µM (inactive)

Q: What about the GI50 [58] of the same molecule?
A: > 10 µM (inactive)

Q: What about the GI50 [48] of the same molecule?
A: > 100 µM (inactive)

Q: What about the GI50 [49] of the same molecule?
A: > 100 µM (inactive)

Q: What about the GI50 [50] of the same molecule?
A: > 100 µM (inactive)

Q: And the GI50 [51]?
A: > 100 µM (inactive)

Q: What about the GI50 [53] of the same molecule?
A: > 100 µM (inactive)

Q: What about the GI50 [54] of the same molecule?
A: > 100 µM (inactive)

Q: And the GI50 [55]?
A: > 100 µM (inactive)

Q: Which results are given for `Cc1ccc(C(=O)/C=C/c2ccccc2Cl)cc1`?
A: GI50 [1]: 15.4 µM (inactive); GI50 [2]: 14.9 µM (inactive); GI50 [3]: 19.1 µM (inactive); GI50 [4]: 19.6 µM (inactive); GI50 [5]: 25.4 µM (inactive); GI50 [6]: 39.4 µM (inactive); GI50 [7]: 16.8 µM (inactive); GI50 [8]: 14.2 µM (inactive); GI50 [9]: 18.5 µM (inactive); GI50 [10]: 18.4 µM (inactive); GI50 [11]: 20.6 µM (inactive); GI50 [13]: 15.8 µM (inactive); GI50 [14]: 19.7 µM (inactive); GI50 [15]: 11.8 µM (inactive); GI50 [16]: 15 µM; GI50 [17]: 19.2 µM (inactive); GI50 [18]: 14.3 µM (inactive); GI50 [19]: 30.1 µM (inactive); GI50 [20]: 20.9 µM (inactive); GI50 [22]: 19.8 µM (inactive); GI50 [23]: 21.2 µM (inactive); GI50 [56]: 18.4 µM (inactive); GI50 [24]: 16.7 µM (inactive); GI50 [25]: 16.2 µM (inactive); GI50 [26]: 20.5 µM (inactive); GI50 [27]: 15.8 µM (inactive); GI50 [28]: 33.7 µM (inactive); GI50 [29]: 15.8 µM (inactive); GI50 [30]: 17.3 µM (inactive); GI50 [31]: 19.2 µM (inactive); GI50 [32]: 17.1 µM (inactive); GI50 [33]: 17.1 µM (inactive); GI50 [34]: 18.8 µM (inactive); GI50 [35]: 15.2 µM (inactive); GI50 [36]: 15.7 µM (inactive); GI50 [37]: 18.3 µM (inactive); GI50 [38]: 24.2 µM (inactive); GI50 [39]: 16.4 µM (inactive); GI50 [40]: 18.8 µM (inactive); GI50 [41]: 26.8 µM (inactive); GI50 [42]: 21.7 µM (inactive); GI50 [43]: 14.7 µM (inactive); GI50 [44]: 15.3 µM (inactive); GI50 [45]: 19 µM (inactive); GI50 [46]: 14 µM (inactive); GI50 [58]: 68.5 µM (inactive); GI50 [48]: 25.1 µM (inactive); GI50 [49]: 13.6 µM (inactive); GI50 [50]: 18.6 µM (inactive); GI50 [51]: 21.1 µM (inactive); GI50 [53]: 17.6 µM (inactive); GI50 [54]: 15.9 µM (inactive); GI50 [55]: 23.5 µM (inactive)
